From patent publication US20260042731A1, “(2,4-DICHLOROPHENOXY)ACETIC ACID ANALOGS” (CORTEVA AGRISCIENCE LLC, priority 2022, published 2026)
Where two headings read alike, the source gives them in different places.

How the values were obtained:
[1] = system: weeds (ABUTH, AMATA, AMBEL, CHEAL, ERICA); test: Postemergence herbicide evaluation, overall average % weed control across ABUTH, AMATA, AMBEL, CHEAL, ERICA; format: in vivo; settings: post-emergence, average over the five weeds, read-out: Overall Ave % Weed Control; for pest or weed control at 280 g/ha: 280 g ae/ha; for pest or weed control at 560 g/ha: 560 g ae/ha
[2] = system: Abutilon theophrasti (ABUTH), velvetleaf; test: Postemergence herbicide evaluation, growth of Abutilon theophrasti (ABUTH); format: in vivo; settings: Abutilon theophrasti, post-emergence, percent reduction in plant size relative to untreated control, read-out: AVE. ABUTH; for pest or weed control at 280 g/ha: 280 g ae/ha; for pest or weed control at 560 g/ha: 560 g ae/ha
[3] = system: Amaranthus rudis (AMATA), tall water hemp; test: Postemergence herbicide evaluation, growth of Amaranthus rudis (AMATA); format: in vivo; settings: Amaranthus tuberculatus, post-emergence, percent reduction in plant size relative to untreated control, read-out: Ave. AMATA; for pest or weed control at 280 g/ha: 280 g ae/ha; for pest or weed control at 560 g/ha: 560 g ae/ha
[4] = Volatility of compounds measured by thermogravimetric analysis (TGA); format: physicochemical
[5] = system: Chenopodium album (CHEAL), common lambsquarters; test: Postemergence herbicide evaluation, growth of Chenopodium album (CHEAL); format: in vivo; settings: Chenopodium album, post-emergence, percent reduction in plant size relative to untreated control, read-out: Ave. CHEAL; for pest or weed control at 280 g/ha: 280 g ae/ha; for pest or weed control at 560 g/ha: 560 g ae/ha
[6] = system: glyphosate resistant Conyza canadensis (L.) (ERICA), horseweed; test: Postemergence herbicide evaluation, growth of Conyza canadensis (ERICA); format: in vivo; settings: Erigeron canadensis, post-emergence, percent reduction in plant size relative to untreated control, read-out: Ave. ERICA; for pest or weed control at 280 g/ha: 280 g ae/ha; for pest or weed control at 560 g/ha: 560 g ae/ha
[7] = system: Ambrosia artemisiifolia (AMBEL), common ragweed; test: Postemergence herbicide evaluation, growth of Ambrosia artemisiifolia (AMBEL); format: in vivo; settings: Ambrosia artemisiifolia, post-emergence, percent reduction in plant size relative to untreated control, read-out: AVE. AMBEL; for pest or weed control at 280 g/ha: 280 g ae/ha; for pest or weed control at 560 g/ha: 560 g ae/ha

Row | Structure (SMILES) | pest or weed control at 280 g/ha ([1]; 168 h, 7 DAA) | pest or weed control at 560 g/ha ([1]; 168 h, 7 DAA) | pest or weed control at 280 g/ha ([1]; 336 h, 14 DAA) | pest or weed control at 560 g/ha ([1]; 336 h, 14 DAA) | pest or weed control at 280 g/ha ([1]; 504 h, 21 DAA) | pest or weed control at 560 g/ha ([1]; 504 h, 21 DAA) | pest or weed control at 280 g/ha ([2]; 168 h, 7 DAA) | pest or weed control at 560 g/ha ([2]; 168 h, 7 DAA) | pest or weed control at 280 g/ha ([2]; 336 h, 14 DAA) | pest or weed control at 560 g/ha ([2]; 336 h, 14 DAA) | pest or weed control at 280 g/ha ([2]; 504 h, 21 DAA) | pest or weed control at 560 g/ha ([2]; 504 h, 21 DAA) | pest or weed control at 280 g/ha ([3]; 168 h, 7 DAA) | pest or weed control at 560 g/ha ([3]; 168 h, 7 DAA) | pest or weed control at 280 g/ha ([3]; 336 h, 14 DAA) | pest or weed control at 560 g/ha ([3]; 336 h, 14 DAA) | pest or weed control at 280 g/ha ([3]; 504 h, 21 DAA) | pest or weed control at 560 g/ha ([3]; 504 h, 21 DAA) | TGA Data (rate of weight loss, volatility) [4] | pest or weed control at 280 g/ha ([5]; 168 h, 7 DAA) | other results
1 | CCOC(=O)C(=NOC(=O)COc1ccc(Cl)cc1Cl)C(=O)OCC [Compound A7, Diethyl 2-((2-(2,4-dichlorophenoxy)acetoxy)imino)malonate] | 69% | 76% | 82% | 85% | 88% | 89% | 75% | 88% | 83% | 89% | 92% | 94% | 73% | 78% | 83% | 88% | 90% | 88% | 4.7 µg/min | 68% | pest or weed control at 560 g/ha ([5]; 168 h, 7 DAA): 70%; pest or weed control at 280 g/ha ([5]; 336 h, 14 DAA): 75%; pest or weed control at 560 g/ha ([5]; 336 h, 14 DAA): 73%; pest or weed control at 280 g/ha ([5]; 504 h, 21 DAA): 73%; pest or weed control at 560 g/ha ([5]; 504 h, 21 DAA): 78%; pest or weed control at 280 g/ha ([6]; 168 h, 7 DAA): 68%; pest or weed control at 560 g/ha ([6]; 168 h, 7 DAA): 73%; pest or weed control at 280 g/ha ([6]; 336 h, 14 DAA): 89%; pest or weed control at 560 g/ha ([6]; 336 h, 14 DAA): 83%; pest or weed control at 280 g/ha ([6]; 504 h, 21 DAA): 93%; pest or weed control at 560 g/ha ([6]; 504 h, 21 DAA): 90%; pest or weed control at 280 g/ha ([7]; 168 h, 7 DAA): 63%; pest or weed control at 560 g/ha ([7]; 168 h, 7 DAA): 70%; pest or weed control at 280 g/ha ([7]; 336 h, 14 DAA): 83%; pest or weed control at 560 g/ha ([7]; 336 h, 14 DAA): 95%; pest or weed control at 280 g/ha ([7]; 504 h, 21 DAA): 92%; pest or weed control at 560 g/ha ([7]; 504 h, 21 DAA): 98%
2 | O=C(COc1ccc(Cl)cc1Cl)ONC(=O)c1ccc(C(=O)NOC(=O)COc2ccc(Cl)cc2Cl)cc1 [Compound B4] | 65% | 69% | 78% | 79% | 83% | 81% | 70% | 80% | 78% | 73% | 83% | 84% | 68% | 70% | 68% | 78% | 65% | 68% | 0.3 µg/min | 63% | pest or weed control at 560 g/ha ([5]; 168 h, 7 DAA): 63%; pest or weed control at 280 g/ha ([5]; 336 h, 14 DAA): 70%; pest or weed control at 560 g/ha ([5]; 336 h, 14 DAA): 68%; pest or weed control at 280 g/ha ([5]; 504 h, 21 DAA): 75%; pest or weed control at 560 g/ha ([5]; 504 h, 21 DAA): 65%; pest or weed control at 280 g/ha ([6]; 168 h, 7 DAA): 68%; pest or weed control at 560 g/ha ([6]; 168 h, 7 DAA): 68%; pest or weed control at 280 g/ha ([6]; 336 h, 14 DAA): 85%; pest or weed control at 560 g/ha ([6]; 336 h, 14 DAA): 95%; pest or weed control at 280 g/ha ([6]; 504 h, 21 DAA): 99%; pest or weed control at 560 g/ha ([6]; 504 h, 21 DAA): 100%; pest or weed control at 280 g/ha ([7]; 168 h, 7 DAA): 58%; pest or weed control at 560 g/ha ([7]; 168 h, 7 DAA): 65%; pest or weed control at 280 g/ha ([7]; 336 h, 14 DAA): 88%; pest or weed control at 560 g/ha ([7]; 336 h, 14 DAA): 84%; pest or weed control at 280 g/ha ([7]; 504 h, 21 DAA): 95%; pest or weed control at 560 g/ha ([7]; 504 h, 21 DAA): 87%
